According to patent US20230265151A1, “GIP/GLP1 CO-AGONIST COMPOUNDS” (priority 2020, published 2023):
Read-outs that look alike come from different tables or passages of the source.

What was measured:
Assay type in all cases: cell-based
hGIPR = target: T1, hGIPR (Homo sapiens, UniProt P48546); assay: Functional cAMP formation (HTRF) in HEK-293 clonal cells expressing hGIPR, 0.1% bovine casein, without or with 1.0% human serum albumin; conditions: for EC50: geometric mean
T1 construct: expressed in transfected cells
T1 sequence (P48546 22-466): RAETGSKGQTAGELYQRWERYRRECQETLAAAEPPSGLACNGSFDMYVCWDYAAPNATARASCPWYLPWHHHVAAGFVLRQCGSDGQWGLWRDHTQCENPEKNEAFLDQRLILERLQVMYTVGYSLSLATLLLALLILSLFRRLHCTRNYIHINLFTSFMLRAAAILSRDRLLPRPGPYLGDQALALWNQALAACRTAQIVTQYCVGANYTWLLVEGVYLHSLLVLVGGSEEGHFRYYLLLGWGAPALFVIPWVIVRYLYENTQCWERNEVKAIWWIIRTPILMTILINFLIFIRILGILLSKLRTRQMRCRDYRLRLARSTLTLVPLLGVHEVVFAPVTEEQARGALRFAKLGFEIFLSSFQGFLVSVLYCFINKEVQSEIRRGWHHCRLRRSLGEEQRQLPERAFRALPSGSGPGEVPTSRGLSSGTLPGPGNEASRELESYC
Summary of the method: (§1)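 Cells were stimulated with peptide for 30 min at 37° C, then lysed in buffer carrying cAMP-d2 and anti-cAMP Eu3+-cryptate for a competitive HTRF read after at least 60 min at room temperature. The 665/620 nm ratio was converted to nM cAMP against a standard curve.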

hGLP-1R = hGLP-1R (Homo sapiens, UniProt P43220); assay: Functional cAMP formation (HTRF) in HEK-293 clonal cells expressing hGLP-1R, 0.1% bovine casein, without or with 1.0% human serum albumin; set-up: expressed in transfected cells
Summary of the method: as §1

hGCGR = target: T2, hGCGR (Homo sapiens, UniProt P47871); assay: Functional cAMP formation (HTRF) in HEK-293 clonal cells expressing hGCGR, 0.1% bovine casein, without or with 1.0% human serum albumin
T2 construct: expressed in transfected cells
Summary of the method: as §1

[1] = HEK293, read-out: hGIPR Emax, % ± SEM, percent of maximal response to GIP(1-42)NH2, 37° C., 0.1% bovine casein, arithmetic mean
[2] = hGCGR EC50, nM (SEM, n), cAMP, incubated at 37° C., 0.1% bovine casein (no human serum albumin), geometric mean

Sequence of hGLP-1R (P43220 24-463): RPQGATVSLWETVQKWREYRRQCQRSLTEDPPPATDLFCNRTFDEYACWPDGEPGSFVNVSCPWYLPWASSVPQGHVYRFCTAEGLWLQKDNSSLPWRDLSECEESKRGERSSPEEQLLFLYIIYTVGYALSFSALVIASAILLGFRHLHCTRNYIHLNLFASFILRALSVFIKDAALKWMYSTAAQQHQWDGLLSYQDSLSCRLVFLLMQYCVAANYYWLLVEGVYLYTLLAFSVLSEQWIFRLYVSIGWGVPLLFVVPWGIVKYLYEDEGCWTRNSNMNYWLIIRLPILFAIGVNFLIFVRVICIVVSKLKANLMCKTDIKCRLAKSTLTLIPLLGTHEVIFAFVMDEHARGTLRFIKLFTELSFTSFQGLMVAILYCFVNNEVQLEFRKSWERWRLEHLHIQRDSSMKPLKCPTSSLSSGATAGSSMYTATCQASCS
T2 sequence (P47871 26-477): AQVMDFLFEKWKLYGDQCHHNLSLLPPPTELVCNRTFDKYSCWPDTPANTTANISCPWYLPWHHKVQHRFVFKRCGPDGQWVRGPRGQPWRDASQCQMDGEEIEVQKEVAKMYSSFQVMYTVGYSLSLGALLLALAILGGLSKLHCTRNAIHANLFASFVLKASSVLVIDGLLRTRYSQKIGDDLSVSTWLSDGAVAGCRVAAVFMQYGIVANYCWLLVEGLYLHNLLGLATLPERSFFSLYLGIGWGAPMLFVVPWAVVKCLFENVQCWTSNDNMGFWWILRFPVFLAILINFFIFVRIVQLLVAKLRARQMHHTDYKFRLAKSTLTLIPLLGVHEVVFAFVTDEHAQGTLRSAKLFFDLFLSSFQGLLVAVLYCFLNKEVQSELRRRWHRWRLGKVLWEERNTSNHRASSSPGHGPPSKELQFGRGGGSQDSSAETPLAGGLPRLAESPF

SMILES: CC[C@H](C)[C@H](NC(=O)[C@H](CC(C)C)NC(=O)[C@](C)(Cc1ccc(O)cc1)NC(=O)[C@@H](CCC(=O)O)NC(=O)[C@@H](NC(=O)[C@H](Cc1ccccc1)NC(=O)[C@H](CCC(=O)O)NC(=O)C(C)(C)NC(=O)[C@H](CCC(N)=O)NC(=O)[C@H](C)NC(=O)[C@H](CCCCNC(=O)COCCOCCNC(=O)COCCOCCNC(=O)CCCCCCCCCCCCC(=O)O)NC(=O)[C@H](CCCN)NC(=O)[C@H](CC(=O)O)NC(=O)[C@H](CC(C)C)NC(=O)[C@](C)(CC(C)C)NC(=O)[C@@H](NC(=O)[C@H](CO)NC(=O)[C@H](Cc1ccncc1)NC(=O)[C@H](CC(=O)O)NC(=O)[C@H](CO)NC(=O)[C@@H](NC(=O)[C@](C)(Cc1ccccc1F)NC(=O)[C@@H](NC(=O)CNC(=O)[C@H](CCC(=O)O)NC(=O)C(C)(C)NC(=O)[C@@H](N)Cc1ccc(O)cc1)[C@@H](C)O)[C@@H](C)O)[C@@H](C)CC)[C@@H](C)CC)C(=O)N[C@@H](CCC(=O)O)C(=O)NCC(=O)NCC(=O)N[C@@H](CCCCNC(=O)COCCOCCNC(=O)COCCOCCNC(=O)CCCCCCCCCCCCC(=O)O)C(=O)N[C@@H](CO)C(=O)N[C@@H](CO)C(=O)NCC(=O)N[C@@H](C)C(=O)N1CCC[C@H]1C(=O)N1CCC[C@H]1C(=O)N1CCC[C@H]1C(=O)N[C@@H](CO)C(N)=O [Example 9]
- EC50 (hGIPR; 0.1% bovine casein and 1.0% human serum albumin, 37° C., read-out: hGIPR EC50, nM (SEM, n)): 0.211 nM
- Emax (hGIPR; HEK293, 0.1% bovine casein and 1.0% human serum albumin, 37° C., percent of maximal response to GIP(1-42)NH2, read-out: hGIPR Emax, % ± SEM): 91.6 ± 4.63%
- Emax (hGIPR; HEK293, percent of maximal response to GIP(1-42)NH2, 37° C., 0.1% bovine casein, arithmetic mean, read-out: hGIPR Emax, % ± SEM): 93.6 ± 2.36%
- EC50 (hGIPR; cAMP, incubated at 37° C., 0.1% bovine casein (no human serum albumin), read-out: hGIPR EC50, nM (SEM, n)): 0.0102 nM
- EC50 (hGLP-1R; 0.1% bovine casein and 1.0% human serum albumin, 37° C., geometric mean, read-out: hGLP-1R EC50, nM (SEM, n)): 8.82 nM
- EC50 (hGCGR; 0.1% bovine casein and 1.0% human serum albumin, 37° C., geometric mean, read-out: hGCGR EC50, nM (SEM, n)): > 9950 nM
- EC50 (hGCGR; cAMP, incubated at 37° C., 0.1% bovine casein (no human serum albumin), geometric mean, read-out: hGCGR EC50, nM (SEM, n)): > 9950 nM

SMILES: CC[C@H](C)[C@H](NC(=O)[C@H](CC(C)C)NC(=O)[C@](C)(Cc1ccc(O)cc1)NC(=O)[C@H](CCCCNC(=O)[C@@H](N)CCCCNC(=O)[C@@H](N)CCCCNC(=O)CC[C@H](NC(=O)CCCCCCCCCCCCC(=O)O)C(=O)O)NC(=O)[C@@H](NC(=O)[C@H](Cc1ccccc1)NC(=O)[C@H](CCC(=O)O)NC(=O)C(C)(C)NC(=O)[C@H](CCC(N)=O)NC(=O)[C@H](C)NC(=O)[C@H](CCCCNC(=O)[C@@H](N)CCCCNC(=O)[C@@H](N)CCCCNC(=O)CC[C@H](NC(=O)CCCCCCCCCCCCC(=O)O)C(=O)O)NC(=O)[C@H](CCCN)NC(=O)[C@H](CC(=O)O)NC(=O)[C@H](CC(C)C)NC(=O)[C@](C)(CC(C)C)NC(=O)[C@@H](NC(=O)C(C)(C)NC(=O)[C@@H](NC(=O)[C@H](CC(=O)O)NC(=O)[C@H](CO)NC(=O)[C@@H](NC(=O)[C@](C)(Cc1ccccc1F)NC(=O)[C@@H](NC(=O)CNC(=O)[C@H](CCC(=O)O)NC(=O)C(C)(C)NC(=O)[C@@H](N)Cc1ccc(O)cc1)[C@@H](C)O)[C@@H](C)O)C(C)C)[C@@H](C)CC)[C@@H](C)CC)C(=O)N[C@@H](CCC(=O)O)C(=O)NCC(=O)NCC(=O)N1CCC[C@H]1C(=O)N[C@@H](CO)C(=O)N[C@@H](CO)C(=O)NCC(=O)N[C@@H](C)C(=O)N1CCC[C@H]1C(=O)N1CCC[C@H]1C(=O)N1CCC[C@H]1C(=O)N[C@@H](CO)C(N)=O [Example 168]
- Emax (hGIPR; [1]): 93%
- Emax (hGLP-1R; HEK293, read-out: hGLP-1R Emax, % ± SEM, percent of maximal response to GLP-1(7-36)NH2, 37° C., 0.1% bovine casein, arithmetic mean): 93.3%
- EC50 (hGCGR; [2]): > 9950 nM

SMILES: CC[C@H](C)[C@H](NC(=O)[C@H](CC(C)C)NC(=O)[C@](C)(Cc1ccc(O)cc1)NC(=O)[C@H](CCCCNC(=O)COCCOCCNC(=O)COCCOCCNC(=O)CC[C@H](NC(=O)CCCCCCCCCCCCC(=O)O)C(=O)O)NC(=O)[C@@H](NC(=O)[C@H](Cc1ccccc1)NC(=O)[C@H](CCC(=O)O)NC(=O)C(C)(C)NC(=O)[C@H](CCC(N)=O)NC(=O)[C@H](C)NC(=O)[C@H](CCCCNC(=O)COCCOCCNC(=O)COCCOCCNC(=O)CC[C@H](NC(=O)CCCCCCCCCCCCC(=O)O)C(=O)O)NC(=O)[C@H](CCCN)NC(=O)[C@H](CC(=O)O)NC(=O)[C@H](CC(C)C)NC(=O)[C@](C)(CC(C)C)NC(=O)[C@@H](NC(=O)[C@H](CO)NC(=O)C1(NC(=O)[C@H](CC(=O)O)NC(=O)[C@H](CO)NC(=O)[C@@H](NC(=O)[C@](C)(Cc2ccccc2F)NC(=O)[C@@H](NC(=O)CNC(=O)[C@H](CCC(=O)O)NC(=O)C(C)(C)NC(=O)[C@@H](N)Cc2ccc(O)cc2)[C@@H](C)O)[C@@H](C)O)CCCC1)[C@@H](C)CC)[C@@H](C)CC)C(=O)N[C@@H](CCC(=O)O)C(=O)NCC(=O)NCC(=O)N1CCC[C@H]1C(=O)N[C@@H](CO)C(=O)N[C@@H](CO)C(=O)NCC(=O)N[C@@H](C)C(=O)N1CCC[C@H]1C(=O)N1CCC[C@H]1C(=O)N1CCC[C@H]1C(=O)N[C@@H](CO)C(N)=O [Example 116]
- Emax (hGIPR; [1]): 115%
- EC50 (hGLP-1R; hGLP-1R EC50, nM (SEM, n), cAMP, incubated at 37° C., 0.1% bovine casein (no human serum albumin), geometric mean): 0.197 nM
- EC50 (hGCGR; [2]): > 9950 nM

SMILES: CC[C@H](C)[C@H](NC(=O)[C@H](CCCN)NC(=O)[C@H](CC(=O)O)NC(=O)[C@H](CC(C)C)NC(=O)[C@](C)(CC(C)C)NC(=O)[C@@H](NC(=O)C(C)(C)NC(=O)[C@@H](NC(=O)[C@H](CC(=O)O)NC(=O)[C@H](CO)NC(=O)[C@@H](NC(=O)[C@](C)(Cc1ccccc1F)NC(=O)[C@@H](NC(=O)CNC(=O)[C@H](CCC(=O)O)NC(=O)C(C)(C)NC(=O)[C@@H](N)Cc1ccc(O)cc1)[C@@H](C)O)[C@@H](C)O)C(C)C)[C@@H](C)CC)C(=O)N[C@@H](C)C(=O)N[C@@H](CCC(N)=O)C(=O)NC(C)(C)C(=O)N[C@@H](CCCN)C(=O)N[C@@H](Cc1ccccc1)C(=O)N[C@H](C(=O)N[C@@H](CCCCNC(=O)COCCOCCNC(=O)COCCOCCNC(=O)CC[C@H](NC(=O)CCCCCCCCCOc1ccc(C(=O)O)cc1)C(=O)O)C(=O)N[C@@](C)(Cc1ccc(O)cc1)C(=O)N[C@@H](CC(C)C)C(=O)N[C@H](C(=O)N[C@@H](CCCCNC(=O)COCCOCCNC(=O)COCCOCCNC(=O)CC[C@H](NC(=O)CCCCCCCCCOc1ccc(C(=O)O)cc1)C(=O)O)C(=O)NCC(=O)NCC(=O)N1CCC[C@H]1C(=O)N[C@@H](CO)C(=O)N[C@@H](CO)C(=O)NCC(=O)N[C@@H](C)C(=O)N1CCC[C@H]1C(=O)N1CCC[C@H]1C(=O)N1CCC[C@H]1C(=O)N[C@@H](CO)C(N)=O)[C@@H](C)CC)[C@@H](C)CC [Example 356]
- Emax (hGIPR; HEK293, read-out: hGIPR Emax, % ± SEM, cAMP, 37° C., 0.1% bovine casein and 1.0% human serum albumin, percent of maximal response to GIP(1-42)NH2): 82.7%
- Emax (hGIPR; HEK293, read-out: hGIPR Emax, % ± SEM, cAMP, 37° C., 0.1% bovine casein, percent of maximal response to GIP(1-42)NH2, arithmetic mean): 96.2%
- EC50 (hGIPR; hGIPR EC50, nM (SEM, n), cAMP, 37° C., 0.1% bovine casein (no human serum albumin)): 0.0488 nM
- Emax (hGLP-1R; HEK293, read-out: hGLP-1R Emax, % ± SEM, cAMP, 37° C., 0.1% bovine casein and 1.0% human serum albumin, percent of maximal response to GLP-1(7-36)NH2): 93%
- EC50 (hGLP-1R; hGLP-1R EC50, nM (SEM, n), cAMP, 37° C., 0.1% bovine casein (no human serum albumin), geometric mean): 0.936 nM
- EC50 (hGLP-1R; hGLP-1R EC50, nM (SEM, n), cAMP, 37° C., 0.1% bovine casein and 1.0% human serum albumin, geometric mean (SEM, n)): 23.4 nM
- EC50 (hGCGR; hGCGR EC50, nM (SEM, n), cAMP, 37° C., 0.1% bovine casein (no human serum albumin), geometric mean): > 9950 nM
- EC50 (hGCGR; hGCGR EC50, nM (SEM, n), cAMP, 37° C., 0.1% bovine casein and 1.0% human serum albumin, geometric mean (SEM, n)): > 9950 nM
